In ChEMBL document CHEMBL6074623, “Carbamoylation at C-8 position of natural 3-arylcoumarin scaffold for the discovery of novel PARP-1 inhibitors with potent anticancer activity” (Eur J Med Chem, 2024):
The source made the active and inactive calls. The calls are words filed in the database; no cut-off is given here.

Columns and labels:
SUM149PT [1] = assay: Induction of apoptosis in human SUM149PT cells assessed as upregulation of cleaved caspase-3 expression incubated for 48 hrs by Western blotting analysis; type: functional, cell-based
CAPAN-1 [2] = assay: Antiproliferative activity against human CAPAN-1 cells assessed as inhibition of cell growth at 5 uM incubated for 48 hrs by MTT assay relative to control; type: functional
SUM149PT [3] = assay: Induction of apoptosis in human SUM149PT cells assessed as late apoptotic cells at 0.1 uM incubated for 24 hrs by Annexin V-FITC/PI staining based flow cytometry (reference value: 2.45 %); type: functional
SUM149PT [4] = assay: Induction of cell cycle arrest in human SUM149PT cells assessed as accumulation of cells at G2/M phase at 0.5 uM incubated for 24 hrs by propidium iodide/RNase A staining based flow cytometry (reference value: 5.54 %); type: functional
SUM149PT [5] = assay: Induction of cell cycle arrest in human SUM149PT cells assessed as accumulation of cells at G0/G1 phase at 0.5 uM incubated for 48 hrs by propidium iodide/RNase A staining based flow cytometry (reference value: 69.2 %); type: functional
SUM149PT [6] = assay: Antiproliferative activity against human SUM149PT cells assessed as inhibition of cell growth at 20 uM incubated for 48 hrs by MTT assay relative to control; type: functional
SUM149PT [7] = assay: Induction of cell cycle arrest in human SUM149PT cells assessed as accumulation of cells at G2/M phase at 0.1 uM incubated for 24 hrs by propidium iodide/RNase A staining based flow cytometry (reference value: 5.54 %); type: functional
SUM149PT [8] = assay: Induction of apoptosis in human SUM149PT cells assessed as viable cells at 2 uM incubated for 48 hrs by Annexin V-FITC/PI staining based flow cytometry (reference value: 96.1 %); type: functional; conditions: read-out: Activity
SUM149PT [9] = assay: Induction of apoptosis in human SUM149PT cells assessed as late apoptotic cells at 2 uM incubated for 24 hrs by Annexin V-FITC/PI staining based flow cytometry (reference value: 2.45 %); type: functional
SUM149PT [10] = assay: Induction of cell cycle arrest in human SUM149PT cells assessed as accumulation of cells at S phase at 0.1 uM incubated for 24 hrs by propidium iodide/RNase A staining based flow cytometry (reference value: 16.4 %); type: functional
SUM149PT [11] = assay: Induction of apoptosis in human SUM149PT cells assessed as late apoptotic cells at 2 uM incubated for 48 hrs by Annexin V-FITC/PI staining based flow cytometry (reference value: 1.13 %); type: functional
SUM149PT [12] = assay: Antiproliferative activity against human SUM149PT cells assessed as inhibition of cell growth incubated for 48 hrs by MTT assay; type: functional, cell-based
SUM149PT [13] = assay: Antiproliferative activity against human SUM149PT cells assessed as inhibition of cell growth at 5 uM incubated for 48 hrs by MTT assay relative to control; type: functional
SUM149PT [14] = assay: Induction of cell cycle arrest in human SUM149PT cells assessed as accumulation of cells at S phase at 2 uM incubated for 48 hrs by propidium iodide/RNase A staining based flow cytometry (reference value: 18.7 %); type: functional
SUM149PT [15] = assay: Induction of apoptosis in human SUM149PT cells assessed as necrotic cells at 0.5 uM incubated for 48 hrs by Annexin V-FITC/PI staining based flow cytometry (reference value: 0.51 %); type: functional
SUM149PT [16] = assay: Induction of ROS in human SUM149PT cells assessed as increase in fluorescence intensity at 2 uM incubated for 48 hrs by DCFH-DA staining based confocal laser scanning microscopic analysis relative to niraparib; type: functional, cell-based
[17] = target: Poly [ADP-ribose] polymerase 1 (Homo sapiens, UniProt P09874); assay: Inhibition of PARP-1 in human SUM149PT cells incubated for 48 hrs by HRP-ELISA; type: cell-based
SUM149PT [18] = assay: Induction of apoptosis in human SUM149PT cells assessed as early apoptotic cells at 2 uM incubated for 48 hrs by Annexin V-FITC/PI staining based flow cytometry (reference value: 2.28 %); type: functional
SUM149PT [19] = assay: Induction of apoptosis in human SUM149PT cells assessed as necrotic cells at 2 uM incubated for 24 hrs by Annexin V-FITC/PI staining based flow cytometry (reference value: 1.27 %); type: functional
SUM149PT [20] = assay: Induction of apoptosis in human SUM149PT cells assessed as late apoptotic cells at 0.1 uM incubated for 48 hrs by Annexin V-FITC/PI staining based flow cytometry (reference value: 1.13 %); type: functional
SUM149PT [21] = assay: Induction of cell cycle arrest in human SUM149PT cells assessed as accumulation of cells at G2/M phase at 2 uM incubated for 24 hrs by propidium iodide/RNase A staining based flow cytometry (reference value: 5.54 %); type: functional
SUM149PT [22] = assay: Induction of apoptosis in human SUM149PT cells assessed as necrotic cells at 2 uM incubated for 48 hrs by Annexin V-FITC/PI staining based flow cytometry (reference value: 0.51 %); type: functional
HCC1937 = assay: Antiproliferative activity against human HCC1937 cells assessed as inhibition of cell growth incubated for 48 hrs by MTT assay; type: functional, cell-based; conditions: HCC1937, 48 h
SUM149PT [23] = assay: Induction of apoptosis in human SUM149PT cells assessed as viable cells at 0.1 uM incubated for 48 hrs by Annexin V-FITC/PI staining based flow cytometry (reference value: 96.1 %); type: functional; conditions: read-out: Activity
SUM149PT [24] = assay: Induction of cell cycle arrest in human SUM149PT cells assessed as accumulation of cells at G2/M phase at 0.5 uM incubated for 48 hrs by propidium iodide/RNase A staining based flow cytometry (reference value: […] %); type: functional
SUM149PT [25] = assay: Induction of apoptosis in human SUM149PT cells assessed as early apoptotic cells at 0.5 uM incubated for 48 hrs by Annexin V-FITC/PI staining based flow cytometry (reference value: 2.28 %); type: functional
CAPAN-1 [26] = assay: Antiproliferative activity against human CAPAN-1 cells assessed as inhibition of cell growth at 20 uM incubated for 48 hrs by MTT assay relative to control; type: functional
SUM149PT [27] = assay: Induction of cell cycle arrest in human SUM149PT cells assessed as accumulation of cells at G2/M phase at 0.1 uM incubated for 48 hrs by propidium iodide/RNase A staining based flow cytometry (reference value: […] %); type: functional
SUM149PT [28] = assay: Induction of apoptosis in human SUM149PT cells assessed as necrotic cells at 0.5 uM incubated for 24 hrs by Annexin V-FITC/PI staining based flow cytometry (reference value: 1.27 %); type: functional
SUM149PT [29] = assay: Induction of apoptosis in human SUM149PT cells assessed as early apoptotic cells at 0.1 uM incubated for 48 hrs by Annexin V-FITC/PI staining based flow cytometry (reference value: 2.28 %); type: functional

Sequence of Poly [ADP-ribose] polymerase 1 (P09874 whole entry): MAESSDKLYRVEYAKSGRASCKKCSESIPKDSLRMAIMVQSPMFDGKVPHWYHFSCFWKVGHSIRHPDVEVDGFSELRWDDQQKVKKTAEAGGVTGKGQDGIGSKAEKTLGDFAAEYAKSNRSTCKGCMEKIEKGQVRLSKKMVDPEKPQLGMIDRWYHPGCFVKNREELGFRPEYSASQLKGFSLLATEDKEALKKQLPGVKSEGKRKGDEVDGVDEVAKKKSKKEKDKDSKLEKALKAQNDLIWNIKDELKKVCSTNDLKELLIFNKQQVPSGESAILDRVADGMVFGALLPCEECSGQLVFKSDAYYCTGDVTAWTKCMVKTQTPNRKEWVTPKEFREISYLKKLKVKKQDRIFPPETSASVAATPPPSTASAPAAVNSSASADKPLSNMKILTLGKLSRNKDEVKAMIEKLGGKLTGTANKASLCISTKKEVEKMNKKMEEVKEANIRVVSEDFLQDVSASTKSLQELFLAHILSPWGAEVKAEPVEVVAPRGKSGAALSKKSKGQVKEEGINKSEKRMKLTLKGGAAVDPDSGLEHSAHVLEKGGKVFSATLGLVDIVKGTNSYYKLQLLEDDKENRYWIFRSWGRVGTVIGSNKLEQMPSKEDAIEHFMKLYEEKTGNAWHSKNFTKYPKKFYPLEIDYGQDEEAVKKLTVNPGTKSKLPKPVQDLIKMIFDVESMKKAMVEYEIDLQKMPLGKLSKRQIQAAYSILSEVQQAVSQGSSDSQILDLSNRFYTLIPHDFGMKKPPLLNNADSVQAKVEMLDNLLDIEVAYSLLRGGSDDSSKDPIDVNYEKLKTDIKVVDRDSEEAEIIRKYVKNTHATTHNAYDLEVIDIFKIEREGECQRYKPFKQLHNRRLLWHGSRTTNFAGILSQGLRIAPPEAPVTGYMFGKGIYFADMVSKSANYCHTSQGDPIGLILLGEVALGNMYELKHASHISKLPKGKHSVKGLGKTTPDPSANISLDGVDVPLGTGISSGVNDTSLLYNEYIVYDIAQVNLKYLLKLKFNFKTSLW

In the case of COc1cccc(-c2cc3cc(F)cc(C(N)=O)c3oc2=O)c1, the Activity (SUM149PT [1]) is reported as “Dose-dependent-effect”, the inhibition at 5 µM (CAPAN-1 [2]) is reported as greater than 50% and the Activity (SUM149PT [3]) is reported as 2.69%. For the same molecule, the Activity (SUM149PT [4]) was 22.3%, the Activity (SUM149PT [5]) was 38.3% and the inhibition at 20 µM (SUM149PT [6]) was greater than 80%. It also gave an Activity (SUM149PT [7]) of 6.91%, a viability at 2 µM (SUM149PT [8]) of 61% and an Activity (SUM149PT [9]) of 6.87%. It also gave an Activity (SUM149PT [10]) of 33.2%, an Activity (SUM149PT [11]) of 6.85% and an IC50 (SUM149PT [12]) of 620 nM. It also gave an inhibition at 5 µM (SUM149PT [13]) greater than 70%, an Activity (SUM149PT [14]) of 18.5% and an Activity (SUM149PT [15]) of 11.9%. The Activity (SUM149PT [16]) was “Active”, the IC50 [17] was 2.53 nM and the Activity (SUM149PT [18]) was 29.6%. The Activity (SUM149PT [19]) was 6.61%, the Activity (SUM149PT [20]) was 6% and the Activity (SUM149PT [21]) was 36.8%. It also gave an Activity (SUM149PT [22]) of 2.61%, an IC50 (HCC1937) of 1910 nM and a viability at 0.1 µM (SUM149PT [23]) of 87.3%. For the same molecule, the Activity (SUM149PT [24]) was 36.7%, the Activity (SUM149PT [25]) was 13.4% and the inhibition at 20 µM (CAPAN-1 [26]) was greater than 60%. It also gave an Activity (SUM149PT [27]) of 29.1%, an Activity (SUM149PT [28]) of 2.31% and an Activity (SUM149PT [29]) of 5.45%.
